Like-named read-outs stand apart in the source and are kept apart here.
Legend:
SARS-CoV-2 virus = assay: In vitro anti-SARS-CoV-2 virus assay (Vero E6 cells, viral RNA by PCR); format: cell-based
[1] = format: in vivo, Male Wistar-Hannover rats
[2] = Vero E6 cells, compound final concentration 100 nM, PCR of supernatant viral RNA after 2-3 days

In the case of `[2H]C1([2H])C[C@@H](C[C@@H](C#N)NC(=O)[C@@H]2[C@@H]3[C@H](CN2C(=O)[C@@H](NC(=O)C(F)(F)F)C(C)(C)C)C3(C)C)C(=O)N1` [Compound 1], the “Inhibition rate (virus replication)” value (SARS-CoV-2 virus; [2]) is reported as 71.5%, the “AUC0~∞” value ([1]; rats, dose 10 mg/kg, plasma) is reported as 1974 ng·h/mL and the Cmax ([1]; rats, dose 10 mg/kg, plasma) is reported as 1393 ng/mL. For the same compound, the T1/2 ([1]; rats, dose 10 mg/kg, plasma) was 3.5 h and the Tmax ([1]; rats, dose 10 mg/kg, plasma) was 2 h.
For `[2H][C@@](C#N)(C[C@@H]1CCNC1=O)NC(=O)[C@@H]1[C@@H]2[C@H](CN1C(=O)[C@@H](NC(=O)C(F)(F)F)C(C)(C)C)C2(C)C` [Compound 2], the “Inhibition rate (virus replication)” value (SARS-CoV-2 virus; [2]) was 73.5%, the “AUC0~∞” value ([1]; rats, dose 10 mg/kg, plasma) was 2325 ng·h/mL and the Cmax ([1]; rats, dose 10 mg/kg, plasma) was 1480 ng/mL. It also gave a T1/2 ([1]; rats, dose 10 mg/kg, plasma) of 4.2 h and a Tmax ([1]; rats, dose 10 mg/kg, plasma) of 2 h.
For `[2H][C@](NC(=O)C(F)(F)F)(C(=O)N1C[C@H]2[C@@H]([C@H]1C(=O)N[C@H](C#N)C[C@@H]1CCNC1=O)C2(C)C)C(C)(C)C` [Compound 16], the “Inhibition rate (virus replication)” value (SARS-CoV-2 virus; [2]) was 72.6%, the Cmax ([1]; rat, in vivo, 10 mg/kg) was 1452 ng/mL and the “AUC0~∞” value ([1]; rats, dose 10 mg/kg, plasma) was 2294 ng·h/mL. For the same compound, the T1/2 ([1]; rats, dose 10 mg/kg, plasma) was 4 h and the Tmax ([1]; rats, dose 10 mg/kg, plasma) was 2 h.
With `[2H]C([2H])([2H])C(C(NC(=O)C(F)(F)F)C(=O)N1C[C@H]2[C@@H]([C@H]1C(=O)N[C@H](C#N)C[C@@H]1CCNC1=O)C2(C)C)(C([2H])([2H])[2H])C([2H])([2H])[2H]` (stereo partly shown) [Compound 32] the “Inhibition rate (virus replication)” value (SARS-CoV-2 virus; [2]) was 70.4%, the “AUC0~∞” value ([1]; rats, dose 10 mg/kg, plasma) was 2011 ng·h/mL and the Cmax ([1]; rats, dose 10 mg/kg, plasma) was 1429 ng/mL. It also gave a T1/2 ([1]; rats, dose 10 mg/kg, plasma) of 3.5 h and a Tmax ([1]; rats, dose 10 mg/kg, plasma) of 2 h.
For `O=C(OC[C@H]1O[C@@H](OC(=O)c2cc(O)c(O)c(OC(=O)c3cc(O)c(O)c(O)c3)c2)[C@H](OC(=O)c2cc(O)c(O)c(OC(=O)c3cc(O)c(O)c(O)c3)c2)[C@@H](OC(=O)c2cc(O)c(O)c(OC(=O)c3cc(O)c(O)c(O)c3)c2)[C@@H]1OC(=O)c1cc(O)c(O)c(OC(=O)c2cc(O)c(O)c(O)c2)c1)c1cc(O)c(O)c(OC(=O)c2cc(O)c(O)c(O)c2)c1` [Control, tannic acid, reference compound], the inhibition at 0.1 µM (SARS-CoV-2 virus; Severe acute respiratory syndrome coronavirus 2, Vero C1008, read-out: Inhibition rate (virus replication)) was 54.1%.
In the case of PF-07321332 [reference compound], the “Inhibition rate (virus replication)” value (SARS-CoV-2 virus; 0.1 µM) is reported as 72.9%.
